Measured values: PMC3256212, “Mechanism and Function of Drosophila capa GPCR: A Desiccation Stress-Responsive Receptor with Functional Homology to Human NeuromedinU Receptor” (PLoS ONE, 2012)
Ends that are not written are not given here.

T1: capaR (CG14575) (Drosophila melanogaster, UniProt Q8ITC7)
T1 construct: The ORF of capaR was amplified from whole fly cDNA as template; expressed in transfected cells; host or cells: Drosophila S2 cells (pMT/V5-His TOPO, CuSO4 induction)
T1 sequence (Q8ITC7 1-477): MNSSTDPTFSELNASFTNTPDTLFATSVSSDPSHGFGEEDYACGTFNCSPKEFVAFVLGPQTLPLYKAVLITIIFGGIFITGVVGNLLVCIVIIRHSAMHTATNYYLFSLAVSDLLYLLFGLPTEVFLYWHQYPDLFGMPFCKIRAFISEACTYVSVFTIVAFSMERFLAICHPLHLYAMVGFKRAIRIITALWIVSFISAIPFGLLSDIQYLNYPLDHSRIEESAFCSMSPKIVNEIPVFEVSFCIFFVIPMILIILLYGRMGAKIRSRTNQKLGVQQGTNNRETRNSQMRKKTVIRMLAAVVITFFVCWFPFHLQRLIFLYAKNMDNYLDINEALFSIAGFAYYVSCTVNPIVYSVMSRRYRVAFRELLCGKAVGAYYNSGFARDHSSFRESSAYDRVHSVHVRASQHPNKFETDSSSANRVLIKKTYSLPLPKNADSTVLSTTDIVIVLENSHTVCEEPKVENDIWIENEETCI

T2: capa receptor (capaR, CG14575) expressed in S2 cells (D. melanogaster) (UniProt Q8ITC7)
T2 sequence: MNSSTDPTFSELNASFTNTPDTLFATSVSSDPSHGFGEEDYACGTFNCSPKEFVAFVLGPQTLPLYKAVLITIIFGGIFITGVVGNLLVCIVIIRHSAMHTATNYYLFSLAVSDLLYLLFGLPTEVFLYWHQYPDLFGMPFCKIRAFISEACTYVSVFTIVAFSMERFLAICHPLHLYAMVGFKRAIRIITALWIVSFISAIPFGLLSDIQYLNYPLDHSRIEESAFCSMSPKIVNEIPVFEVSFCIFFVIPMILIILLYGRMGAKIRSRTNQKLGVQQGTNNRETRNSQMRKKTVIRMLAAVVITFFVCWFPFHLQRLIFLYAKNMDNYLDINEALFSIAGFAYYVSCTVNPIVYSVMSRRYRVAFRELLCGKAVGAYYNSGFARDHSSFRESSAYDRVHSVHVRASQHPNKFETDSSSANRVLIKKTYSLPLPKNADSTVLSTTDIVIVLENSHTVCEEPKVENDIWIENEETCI


Assays:
phospholipase C (PLC) = assay: PLC inhibition: capa-1-induced [Ca2+]i response in S2-capaR cells; type: cell-based, Drosophila; conditions: Fig. 1D
Method: (§1) Drosophila S2 cells, cultured under standard conditions were transiently transfected with the apoaequorin ORF [21] and a receptor ORF construct, and expression induced using CuSO4. Transfected S2 cells were harvested and incubated with 2.5 µM coelenterazine in the dark at RT for 1–2 h as previously described. 25,000 cells were then placed in 135 µl Schneider's medium supplemented with 10% FCS in a well of a white polystyrene 96-well plate (Berthold Technologies). Bioluminescence recordings were carried out using a Mithras LB940 automated 96-well plate reader (Berthold Technologies) and MikroWin software. 15 µl of each of different peptides were applied to final concentrations as required. At the end of each recording samples were disrupted by the addition of 100 µl lysis solution, and the [Ca^2+] concentrations calculated as previously described. For assays in Ca^2+-free medium, transfected cells were collected and pelleted after incubation with coelenterazine. Cell pellets were re-suspended in Ca^2+-free Schneider's medium (Invitrogen Inc.) without FCS and collected by centrifugation. The washing and pelleting procedure was repeated once more. Experiments were then carried out on 25,000 cells per sample as above. […]

capaR (CG14575) = molecular target: T1, capaR (CG14575); assay: [Ca2+]i (aequorin) in capaR-transfected S2 cells; type: cell-based; conditions: for EC50: S2 cells expressing capaR and apoaequorin, maximal - background, mean ± S.E.M., N = 6 (Fig. 1C), read-out: EC50 for stimulated [Ca2+]i responses via capaR; for effect on [Ca2+]i via capaR: 10^−7 M, S2 cells (Fig. 3A)
Description: The ORF of capaR was amplified from whole fly cDNA as template using the primers 5′-[…]-3′ and 5′-[…]-3′ and cloned into pMT/V5-His TOPO vector (Invitrogen). The eYFP ORF was fused in-frame at the C-terminus of the capaR using KpnI and ApaI sites and the tagged construct was cloned into the pMT/V5-His TOPO vector.
(§2) The capa peptides Drm-capa-1 (GANMGLYAFPRVamide), Drm-capa-2 (ASGLVAFPRVamide), Drm-PK-1 (TGPSASSGLWFGPRLamide), Drm-PK-2 (SVPFKPRLamide) and hugin gamma (hugg, pQLQSNGEPAYRVRTPRL-amide) were synthesised as C-terminally amidated peptides (Biomatik Corporation, Canada). Peptides were dissolved in distilled ACN/H2O to a concentration of 1 mM and then diluted to the required working concentration in Schneider's medium (Invitrogen Inc.). Human neuromedin U-25 was purchased from Sigma. Rabbit polyclonal antibody to porcine neuromedinU-8 was purchased from Progen biotechnik (Heidelberg, Germany). Rabbit capa precursor peptide used was described in [21] Rabbit anti-peptide antibody was raised against the capaR epitope (CQQGTNNRETRNSQM) by Genosphere Biotechnologies (Paris, France) and purified on a HiTrap NHS-activated HP column (Amersham Pharmacia Bio-tech; Buckinghamshire, UK) according to the manufacturer's instructions. Immunohistochemistry was carried out as described previously. Mouse anti-GFP primary antibody (Zymed) and the antiserum to neuromedinU-8 were all diluted 1∶1000 or, in the case of the pre-immune serum, the affinity-purified capaR antibody and the antiserum to the capa precursor peptide, 1∶500. Incubations in the primary antibodies were performed overnight. A FITC-conjugated affinity-purified goat anti-mouse antibody (Jackson Immunologicals) was used in a dilution of 1∶1,000 for visualization of the mouse monoclonal anti-GFP. A Texas red-conjugated affinity-purified goat anti-rabbit antibody (Jackson Immunologicals) was used at a dilution of 1∶1,000 for visualization of the rabbit capaR antiserum.
Drosophila S2 cells, cultured under standard conditions were transiently transfected with the apoaequorin ORF [21] and a receptor ORF construct, and expression induced using CuSO4. Transfected S2 cells were harvested and incubated with 2.5 µM coelenterazine in the dark at RT for 1–2 h as previously described. 25,000 cells were then placed in 135 µl Schneider's medium supplemented with 10% FCS in a well of a white polystyrene 96-well plate (Berthold Technologies). Bioluminescence recordings were carried out using a Mithras LB940 automated 96-well plate reader (Berthold Technologies) and MikroWin software. 15 µl of each of different peptides were applied to final concentrations as required. At the end of each recording samples were disrupted by the addition of 100 µl lysis solution, and the [Ca^2+] concentrations calculated as previously described. For assays in Ca^2+-free medium, transfected cells were collected and pelleted after incubation with coelenterazine. Cell pellets were re-suspended in Ca^2+-free Schneider's medium (Invitrogen Inc.) without FCS and collected by centrifugation. The washing and pelleting procedure was repeated once more. Experiments were then carried out on 25,000 cells per sample as above. To verify whether the observed calcium signal was linked to phospholipase C (PLC) activation, S2-capaR cells were preincubated with the PLC inhibitor U73122 at concentration of 10^−3 M to 10^−8 M for 10 min. Luminometry experiments were carried out on live, intact tubules expressing a targeted transgene for cytosolic-targeted apoaequorin in either principal or stellate cells as previously described, [22]. For in vivo tubule experiments, flies of the following genotypes were used: c42aeq, capaR-GAL4, UAS-capaR, UAS-capaR RNAi, UAS-NMUR 2 and the resulting progeny from GAL4>UAS crosses.

NMR 1 = test system: NMR 1; set-up: method as in earlier work; conditions: CHO cells; ref 39 (Fujii et al.); cited from earlier work
NMU receptor 2 (NMUR 2) = molecular target: T3, NMU receptor 2 (NMUR 2) (Homo sapiens, UniProt Q9GZQ4); assay: [Ca2+]i (aequorin) in NMUR 2-transfected S2 cells; type: cell-based; conditions: 10^−7 M, S2 cells (Fig. 3B)
T3 construct: expressed in transfected cells; host or cells: Drosophila S2 cells (pMT/V5-His TOPO)
Method: as §2
as §1, with “more.” for “more. Experiments were then carried out on 25,000 cells per sample as above.”

CG8795 (hugin receptor) = assay: [Ca2+]i (aequorin) in CG8795-transfected S2 cells; type: cell-based, Drosophila; conditions: 10^−7 M, S2 cells (Fig. 3C)
Method: as §2, with “A Texas red-conjugated affinity-purified goat anti-rabbit antibody (Jackson Immunologicals) was used at a dilution of 1∶1,000 for visualization of the rabbit capaR antiserum.” left out
Drosophila S2 cells, cultured under standard conditions were transiently transfected with the apoaequorin ORF [21] and a receptor ORF construct, and expression induced using CuSO4. […] Bioluminescence recordings were carried out using a Mithras LB940 automated 96-well plate reader (Berthold Technologies) and MikroWin software. […] At the end of each recording samples were disrupted by the addition of 100 µl lysis solution, and the [Ca^2+] concentrations calculated as previously described. […]

Malpighian tubule = assay: Fluid transport by wild-type Malpighian tubules; set-up: species or system Drosophila melanogaster; conditions: 10^−7 M; mean ± SEM, N = 6–10, Student's t-test P<0.05 (Fig. 4A)
Method: Fluid transport assays were carried out as previously described using live, intact tubules dissected from 7-day-old adults with the following genotypes: wild-type Canton-S, c42-GAL4>UAS-capaR RNAi, actin-GAL4>UAS-NMUR 2. Fluid droplets were collected every 10 min, and the volumes of fluid were calculated. Basal rates of fluid secretion were monitored for 30 min, whereupon peptide was added, and the secretion rate was then recorded for a further 30 min.

[1] = molecular target: T2, capa receptor (capaR, CG14575) expressed in S2 cells (D. melanogaster)
[2] = molecular target: T2, capa receptor (capaR, CG14575) expressed in S2 cells (D. melanogaster); remark: listed apart in the source
[3] = molecular target: human neuromedin U receptor 2 (human) (UniProt Q9GZQ4)
Chain of human neuromedin U receptor 2 (human) (Q9GZQ4 whole entry): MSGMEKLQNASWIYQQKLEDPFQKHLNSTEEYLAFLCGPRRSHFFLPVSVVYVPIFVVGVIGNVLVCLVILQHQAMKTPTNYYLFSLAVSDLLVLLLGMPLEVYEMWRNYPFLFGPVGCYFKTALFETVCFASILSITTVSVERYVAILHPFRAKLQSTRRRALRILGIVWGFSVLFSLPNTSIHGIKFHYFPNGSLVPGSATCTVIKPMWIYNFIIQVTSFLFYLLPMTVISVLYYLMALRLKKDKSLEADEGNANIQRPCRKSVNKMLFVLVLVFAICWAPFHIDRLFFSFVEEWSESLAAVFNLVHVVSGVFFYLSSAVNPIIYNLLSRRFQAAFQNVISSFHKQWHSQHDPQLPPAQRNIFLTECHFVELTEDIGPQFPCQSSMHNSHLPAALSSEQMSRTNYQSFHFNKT

T3 sequence (Q9GZQ4 whole entry): as above

Molecule	effect on [Ca2+]i via NMUR 2 (NMU receptor 2 (NMUR 2))	effect on [Ca2+]i via CG8795 (CG8795 (hugin receptor))	fluid transport by wild-type tubules (Malpighian tubule)	effect on [Ca2+]i via capaR (capaR (CG14575))	also measured
COc1ccc2c(c1)CC[C@@H]1[C@@H]2CC[C@]2(C)[C@@H](NCCCCCCN3C(=O)C=CC3=O)CC[C@@H]12 [U73122]	–	–	–	–	inhibition of capa-1-induced [Ca2+]i response (phospholipase C (PLC)): inhibited by the widely-used PLC inhibitor (U73122) in a dose-dependent manner
CSCC[C@H](NC(=O)[C@H](CC(N)=O)NC(=O)[C@H](C)NC(=O)CN)C(=O)NCC(=O)N[C@@H](CC(C)C)C(=O)N[C@@H](Cc1ccc(O)cc1)C(=O)N[C@@H](C)C(=O)N[C@@H](Cc1ccccc1)C(=O)N1CCC[C@H]1C(=O)N[C@@H](CCCNC(=N)N)C(=O)N[C@H](C(N)=O)C(C)C [capa-1]	–	–	–	–	EC50 (capaR (CG14575)): 3.06 nM
CC(C)C[C@H](NC(=O)CNC(=O)[C@H](CO)NC(=O)[C@H](C)N)C(=O)N[C@H](C(=O)N[C@@H](C)C(=O)N[C@@H](Cc1ccccc1)C(=O)N1CCC[C@H]1C(=O)N[C@@H](CCCNC(=N)N)C(=O)N[C@H](C(N)=O)C(C)C)C(C)C [capa-2]	–	–	–	–	EC50 (capaR (CG14575)): 4.32 nM
MNYLAFPRM-NH2 [SCPB]	–	–	–	–	agonistic activity to NMR 1 (NMR 1): significant agonistic activity
SVPFKPRL-NH2 [Drm-PK-2, Drosophila pyrokinin, SVPFKPRLamide]	do not have effects on either capaR (Fig. 3A) or NMUR 2	stimulates increased [Ca^2+]i levels	not with Drm-PK-1, hugg, Drm-PK-2	do not have effects on either capaR	–
TGPSASSGLWFGPRL-NH2 [Drm-PK-1, Drosophila pyrokinin, …amide]	do not have effects on either capaR (Fig. 3A) or NMUR 2	stimulates increased [Ca^2+]i levels	not with Drm-PK-1, hugg, Drm-PK-2	do not have effects on either capaR	–
pQLQSNGEPAYRVRTPRL-amide [hugg, hugin gamma, p…-amide]	increases [Ca^2+]i via NMUR 2 but to a reduced level compared to capa-1	stimulates increased [Ca^2+]i levels	not with Drm-PK-1, hugg, Drm-PK-2	but not hugg nor Drm-PK-2, increases intracellular calcium ([Ca^2+]i) levels via capaR	–
ASGLVAFPRV-NH2 [Drm-capa-2]	–	–	–	–	[Ca2+]i (aequorin luminescence) in S2 cells expressing capaR and apoaequorin, dose-response to capa-2 [1]: 4.32 nM
GANMGLYAFPRV-NH2 [Drm-capa-1]	–	–	–	–	[Ca2+]i (aequorin luminescence) in S2 cells expressing capaR and apoaequorin, dose-response to capa-1 [1]: 3.06 nM
FRVDEEFQSPFASQSRGYFLFRPRN-NH2 [Human neuromedin U-25]	–	–	–	–	[Ca2+]i, dose-response to NMU-25; first of two values given 'respectively', probably capaR- and apoaequorin-co-transfected S2 cells [2]: 21.8 nM; [Ca2+]i, dose-response to NMU-25; second of two values given 'respectively', probably intact tubules expressing apoaequorin in principal cells (endogenous capaR) [2]: 27.1 nM; [Ca2+]i in S2 cells expressing NMUR 2 and apoaequorin, dose-response to NMU-25 [3]: 0.91 nM
